Data on 4 molecules can be found in patent publication US20210008028A1, “COMPOSITIONS AND METHODS FOR TREATING DIARRHEAL DISEASES” (VANESSA RESEARCH, INC., priority 2018, published 2021).

The assay deals with CTx-induced fluid secretion in the mouse intestine. The assay can be described thus: Cholera-toxin induced closed-loop mouse diarrheal model, individual polyphenols and their combination. It is filed as in vivo. Conditions: for Concentration that did not have any effect on the CTx-induced fluid secretion: individual compound, CTx 1 μg per loop; for Effect on fluid accumulation elicited by CTx: individual polyphenols, dose-dependent. How it is done: Following identification, individual reagents of cyanidin, delphinidin, epicatechin gallate and epigallocatechin gallate were acquired from ChromaDex (Chromadex, Irvine, Calif., USA) and tested in the same cholera-toxin induced closed-loop mouse diarrheal model described above. We sought and resolved the IC^50 concentration of each individual component as relevant for the treatment of cholera-toxin induced intestinal secretion.
Mice (19-35 g) were fasted for 24-48 h, weighed and anesthetized with Avertin Sigma-Aldrich, St. Louise, Mo., USA) (250 mg/kg IP induction dose f.b. 2.6 mg IP every 30-45 minutes as needed for maintenance of anesthesia). Body temperature was maintained at 37-38° C. using a heating pad.
Abdomen was opened. Small, and part of the large intestine were identified. 2-4 cm loops were ligated in the proximal jejunum beginning immediately downstream of Treitz ligament. Loops were separated by 1-2 cm of intervening small intestine. After ligation, one loop was injected with 100 μl of PBS, second loop was injected with CTx solution (Cayman chemicals, 1 μg in 100 μl PBS and third loop was injected with CTx and polyphenol solution (Chromadex, Irvine, Calif., USA) in 100 μl of PBS. Injected loops were photographed and carefully placed back into the abdominal cavity and then abdomen was closed with two sutures. After 4 to 6-hour incubation, animal was euthanized and entire length of small intestine, cecum and ascending transverse colon were removed as a single prep. Loops were excised, trimmed of fat, measured and weighted. Mice were euthanized by cervical dislocation or an overdose injection of Avertin. All animal protocols were approved by the Laboratory Animal Ethical Committee of Vanessa Research Inc. The loop weight/length ratio was calculated.
Flavan-3-ols and gallotannins stock solutions (stock dilutions (stored at −20 C)) and working dilutions (PBS) were designated and prepared as follows:
F1A—Cyanidin chloride (Chromadex, ASB-00003955-005 Lot #00003955-041) 5 mg dissolved in 1 ml methanol (Sigma-Aldrich, Saint Louise, Mo., USA) to 5 mg/ml stock. Original concentration used in experiments 0.05 mg/ml. Serial dilutions from 1:10 to 1:100,000 with increments of 1:10 were prepared for experiments.
F1B—Delphinidin chloride (Chromadex, ASB-00004125-001 Lot #00004125-504) 1 mg dissolved in 143 ul methanol to 7 mg/ml stock. Original concentration used in experiments 0.07 mg/ml. Serial dilutions from 1:10 to 1:100,000 with increments of 1:10 were prepared for experiments.
F1C—Epicatechin gallate (Chromadex, ASB-00005135-005 Lot #00005135-523) 5 mg dissolved in 1 ml methanol to 5 mg/ml stock. Original concentration used in experiments […] (1:50 dilution of 5 mg/ml stock). Serial dilutions from 1:10 to 1:100,000 with increments of 1:10 were prepared for experiments.
F1D—Epigallocatechin gallate (Chromadex, ASB-00005150-005 Lot #00005150-008) 5 mg dissolved in 1 ml methanol to 5 mg/ml stock. Original concentration used in experiments […] (1:33.4 of 5 mg/ml stock). Serial dilutions from 1:10 to 1:100,000 with increments of 1:10 were prepared for experiments.
However, in order to confirm or exclude the idea of synergism between multiple polyphenols in exertion of the anti-secretory effect following induction of fluid secretion with CTx, we attempted a treatment with a combination of all 4 polyphenols in the concentrations as indicated in Table 1. The ratio of concentrations (mg/ml) of individual members (cyaniding:delphinidin:epicatechin gallate:epigallocatechin gallate) in the combination was derived from Table 1 as 500:70:1:150 (weight ratio) accordingly.
Data analysis was done as follows: The formula was used as adapted from Yamamoto K., 1979:
Mass accumulation=Tm−(Cm/CL)×TL
After determining fluid accumulation in treated and untreated samples, a percent reduction in mass was performed using the mass obtained from the previous formula
5. The certain variables were removed based on the Exclusion Criteria for Data: […]

As for `Oc1cc(O)c2cc(O)c(-c3ccc(O)c(O)c3)[o+]c2c1.[Cl-]` [F1A, Cyanidin chloride], the “Concentration that did not have any effect on the CTx-induced fluid secretion” value amounted to 5e-06 mg/mL and the “Effect on fluid accumulation elicited by CTx” value (“Effect … by CTx” below) is on record as “significantly reduced fluid accumulation”.

Take `Oc1cc(O)c2cc(O)c(-c3cc(O)c(O)c(O)c3)[o+]c2c1` [F1B, Delphinidin chloride]: the “Concentration that did not have any effect on the CTx-induced fluid secretion” value is 7e-08 mg/mL and the “Effect … by CTx” value was “significantly reduced fluid accumulation”.

In the case of `O=C(O[C@@H]1Cc2c(O)cc(O)cc2O[C@@H]1c1ccc(O)c(O)c1)c1cc(O)c(O)c(O)c1` [F1C, Epicatechin gallate], the “Concentration that did not have any effect on the CTx-induced fluid secretion” value amounted to 1e-08 mg/mL and the “Effect … by CTx” value is on record as “significantly reduced fluid accumulation”.

`O=C(O[C@@H]1Cc2c(O)cc(O)cc2O[C@@H]1c1cc(O)c(O)c(O)c1)c1cc(O)c(O)c(O)c1` [F1D, Epigallocatechin gallate]: the “Concentration that did not have any effect on the CTx-induced fluid secretion” value came out at 1e-06 mg/mL and the “Effect … by CTx” value was “significantly reduced fluid accumulation”.
